Measured values reported in ChEMBL document CHEMBL1201862, “PubChem BioAssay data set” (2004).
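Dose response: 5 concentrations. Exposure: 48 h. Format: 96-well plates. Endpoint: linear interpolation; highest concentration if not reached. GI50 marks 50% less growth.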 Active and inactive are the calls of the source. No stated cut-off is given here; in the data, active = GI50 up to about 1.1 µM and inactive = higher.

Experiments:
Assay in all cases: growth of human tumour cells (NCI), 48 h
BT-549 = test system: BT-549
HOP-62 = test system: HOP-62
HT-29 = test system: HT-29
Hs-578T = test system: Hs-578T
KM12 = test system: KM12
MDA-MB-435 = test system: MDA-MB-435
MDA-N = test system: MDA-N
MOLT-4 = test system: MOLT-4
NCI-H23 = test system: NCI-H23
NCI/ADR-RES = test system: NCI/ADR-RES
OVCAR-3 = test system: OVCAR-3
OVCAR-4 = test system: OVCAR-4
PC-3 = test system: PC-3
SF-268 = test system: SF-268
SF-539 = test system: SF-539
SK-MEL-28 = test system: SK-MEL-28
SNB-19 = test system: SNB-19
NCI-H522 = test system: NCI-H522
RXF 393 = test system: RXF 393
SR = test system: SR

Row | SMILES | GI50 (BT-549) | GI50 (HOP-62) | GI50 (HT-29) | GI50 (Hs-578T) | GI50 (KM12) | GI50 (MDA-MB-435) | GI50 (MDA-N) | GI50 (MOLT-4) | GI50 (NCI-H23) | GI50 (NCI/ADR-RES) | GI50 (OVCAR-3) | GI50 (OVCAR-4) | GI50 (PC-3) | GI50 (SF-268) | GI50 (SF-539) | GI50 (SK-MEL-28) | GI50 (SNB-19) | GI50 (NCI-H522) | GI50 (RXF 393) | GI50 (SR)
1 | COc1ccc2c(c1)nc1n2C(c2c(Cl)cccc2Cl)SC1 (stereo not given) | > 67.3 µM (inactive) | 32.9 µM (inactive) | 15.2 µM (inactive) | 5.45 µM (inactive) | 12.4 µM (inactive) | 2.59 µM (inactive) | 2.26 µM (inactive) | > 21.6 µM (inactive) | 38.4 µM (inactive) | 4.12 µM (inactive) | > 20.5 µM (inactive) | > 46.6 µM (inactive) | > 33.3 µM (inactive) | 20 µM (inactive) | 9.1 µM (inactive) | 25.9 µM (inactive) | > 33.5 µM (inactive) |  |  | 
2 | O=C1CC2(CCNCC2)C(=O)N1N1CCCC1 | > 100 µM (inactive) | > 100 µM (inactive) | > 100 µM (inactive) |  | > 100 µM (inactive) | > 100 µM (inactive) | > 100 µM (inactive) | > 100 µM (inactive) | > 100 µM (inactive) | > 100 µM (inactive) | > 100 µM (inactive) |  | > 100 µM (inactive) |  | > 100 µM (inactive) |  | > 100 µM (inactive) | > 100 µM (inactive) | > 100 µM (inactive) | > 100 µM (inactive)
3 | CC1(C)O[C@H]([C@H](O)c2nnc3ccc(Cl)nn23)[C@@H]([C@H]2COC(C)(C)O2)O1 | > 100 µM (inactive) | > 100 µM (inactive) | > 100 µM (inactive) | > 100 µM (inactive) | > 100 µM (inactive) | > 100 µM (inactive) | > 100 µM (inactive) | > 100 µM (inactive) | > 100 µM (inactive) | > 100 µM (inactive) | > 100 µM (inactive) | > 100 µM (inactive) | > 100 µM (inactive) | > 100 µM (inactive) | > 100 µM (inactive) | > 100 µM (inactive) | > 100 µM (inactive) | > 100 µM (inactive) | > 100 µM (inactive) | 
4 | [N-]=[N+]=NC1=CC(=O)c2cccc3cccc1c23 | 27.1 µM (inactive) | 15.7 µM (inactive) | 34.6 µM (inactive) | 17.9 µM (inactive) | 85.9 µM (inactive) | 40 µM (inactive) | 46.2 µM (inactive) | 10.7 µM (inactive) | 20.7 µM (inactive) |  | 31.7 µM (inactive) | 56.9 µM (inactive) | 16.6 µM (inactive) | 29.9 µM (inactive) | 31 µM (inactive) | 33.3 µM (inactive) | 36.5 µM (inactive) |  | 16.8 µM (inactive) | 67.3 µM (inactive)
5 | O=C(c1ccc2ccccc2c1)C1S(=O)(=O)OCCOS1(=O)=O | > 100 µM (inactive) | > 100 µM (inactive) | > 100 µM (inactive) |  | > 100 µM (inactive) | > 100 µM (inactive) | > 100 µM (inactive) | > 100 µM (inactive) | > 100 µM (inactive) | > 100 µM (inactive) | > 100 µM (inactive) | > 100 µM (inactive) | > 100 µM (inactive) |  |  | > 100 µM (inactive) | > 100 µM (inactive) |  |  | > 100 µM (inactive)
6 | COC(=O)C1=C(C(=O)OC)C2(c3ccccc3)c3ccccc3C(=O)C1N2C1CCCCC1 (stereo not given) | > 100 µM (inactive) | > 68.9 µM (inactive) | 42.1 µM (inactive) | 40.9 µM (inactive) | 17.8 µM (inactive) | 86.7 µM (inactive) | > 65 µM (inactive) | 6.61 µM (inactive) | > 52.5 µM (inactive) | > 82 µM (inactive) | 72.6 µM (inactive) | 58.2 µM (inactive) | 10.6 µM (inactive) | 88.7 µM (inactive) | 69.3 µM (inactive) | > 62.1 µM (inactive) | > 63.4 µM (inactive) | 34.6 µM (inactive) | 33.7 µM (inactive) | 
7 | CC1(C)C2CC(O)C1CCC2=O (stereo not given) | > 100 µM (inactive) | > 100 µM (inactive) | > 100 µM (inactive) | > 100 µM (inactive) | > 100 µM (inactive) | > 100 µM (inactive) | > 100 µM (inactive) | > 100 µM (inactive) | > 100 µM (inactive) | > 100 µM (inactive) | > 100 µM (inactive) | > 100 µM (inactive) | > 100 µM (inactive) | > 100 µM (inactive) | > 100 µM (inactive) | > 100 µM (inactive) | > 100 µM (inactive) | > 100 µM (inactive) | > 100 µM (inactive) | 
8 | COc1cc(C2S/C(=C/c3ccccc3)C(=O)N2Cc2ccccc2)cc(OC)c1OC (stereo not given) | 54.5 µM (inactive) | 26.2 µM (inactive) | 53.5 µM (inactive) | 30.2 µM (inactive) | 36.1 µM (inactive) | 25.5 µM (inactive) | 19.3 µM (inactive) | 18.4 µM (inactive) | 67.3 µM (inactive) | 26.4 µM (inactive) |  | 23.2 µM (inactive) | 28.2 µM (inactive) | 33.1 µM (inactive) |  | 88.9 µM (inactive) | 57.9 µM (inactive) | 16.1 µM (inactive) |  | 20 µM (inactive)
9 | Cc1ccc(S(=O)(=O)NC(=O)C2C(=O)CC3(CCCCC3)CC2=O)cc1 | 27.5 µM (inactive) | 25.4 µM (inactive) | 32.7 µM (inactive) | 41.9 µM (inactive) | 19.6 µM (inactive) | 32.1 µM (inactive) | 29.3 µM (inactive) | 42.4 µM (inactive) | 46 µM (inactive) | 19.7 µM (inactive) | 29 µM (inactive) | 32.4 µM (inactive) | 25.6 µM (inactive) | 34.8 µM (inactive) | 30.7 µM (inactive) |  | 41.5 µM (inactive) | 23.8 µM (inactive) | 38.3 µM (inactive) | 
10 | O=C(NC(Cc1ccccc1)(Cc1ccc(O)cn1)C(=O)O)c1ccccc1 (stereo not given) | > 100 µM (inactive) | > 100 µM (inactive) | 42.2 µM (inactive) | > 100 µM (inactive) | > 100 µM (inactive) | > 100 µM (inactive) | > 100 µM (inactive) | 46.8 µM (inactive) | > 100 µM (inactive) | > 100 µM (inactive) | 63 µM (inactive) | 98.6 µM (inactive) | 76.4 µM (inactive) | > 100 µM (inactive) | > 100 µM (inactive) | > 100 µM (inactive) | > 100 µM (inactive) | > 100 µM (inactive) | > 100 µM (inactive) | 
11 | CCOc1cc2c(OCc3ccccc3)cc3c4cc(OC)c(OC)cc4c[n+](C)c3c2cc1OC | 0.789 µM (active) | 2.99 µM (inactive) | 2.66 µM (inactive) |  | 1.15 µM (inactive) | 0.789 µM (active) | 0.857 µM (active) | 0.818 µM (active) | 2.73 µM (inactive) | > 100 µM (inactive) | 1.06 µM (active) | 2.04 µM (inactive) | 1.66 µM (inactive) | 0.492 µM (active) | 1.3 µM (inactive) | 1.36 µM (inactive) | 0.385 µM (active) | 0.391 µM (active) | 2.4 µM (inactive) | 0.631 µM (active)
12 | CCOC(=O)C1=CC(C)(C(=O)OCC)Nc2c(nc(N)[nH]c2=O)N1 (stereo not given) | 7.31 µM (inactive) | > 10 µM (inactive) | > 10 µM (inactive) | > 10 µM (inactive) | > 10 µM (inactive) | > 10 µM (inactive) | > 10 µM (inactive) | > 10 µM (inactive) | > 10 µM (inactive) | > 10 µM (inactive) | > 10 µM (inactive) | > 10 µM (inactive) | > 10 µM (inactive) | > 10 µM (inactive) | > 10 µM (inactive) | > 10 µM (inactive) | > 10 µM (inactive) | > 10 µM (inactive) | > 10 µM (inactive) | 
13 | C=C1C(=O)OC2(C)CCC1CC1OC1(C)CCC=C(C)CCC2O (stereo not given) | 6.24 µM (inactive) |  | > 100 µM (inactive) | 57.5 µM (inactive) | > 100 µM (inactive) | 44.3 µM (inactive) | 25.5 µM (inactive) | 30.3 µM (inactive) | > 100 µM (inactive) | > 100 µM (inactive) | > 100 µM (inactive) | > 100 µM (inactive) | > 100 µM (inactive) | > 100 µM (inactive) | 88.3 µM (inactive) | > 100 µM (inactive) | > 100 µM (inactive) | 64.7 µM (inactive) |  | 
14 | O=C1OC(CS(=O)(=O)c2ccccc2)CC1O (stereo not given) | 72.8 µM (inactive) | > 100 µM (inactive) | > 100 µM (inactive) |  | > 100 µM (inactive) | > 100 µM (inactive) | > 100 µM (inactive) | > 100 µM (inactive) | > 100 µM (inactive) | > 100 µM (inactive) | > 100 µM (inactive) | > 100 µM (inactive) | > 100 µM (inactive) | > 100 µM (inactive) | > 100 µM (inactive) | > 100 µM (inactive) | > 100 µM (inactive) | 53.1 µM (inactive) | > 100 µM (inactive) | > 100 µM (inactive)
15 | CN(C)CCCNc1ccnc2cccc([N+](=O)[O-])c12 | 21.8 µM (inactive) | 18.1 µM (inactive) | 12.1 µM (inactive) | 26 µM (inactive) | 12.8 µM (inactive) | 15.3 µM (inactive) | 17.2 µM (inactive) | > 100 µM (inactive) | 5.9 µM (inactive) |  | 5.22 µM (inactive) | 6.18 µM (inactive) | 14.3 µM (inactive) | 16.4 µM (inactive) | 15.2 µM (inactive) | 14.3 µM (inactive) | 19.6 µM (inactive) | 7.96 µM (inactive) | 25.5 µM (inactive) | > 100 µM (inactive)
